From patent publication US20140113014A1, “CHICORY FOR PREVENTION AND TREATMENT OF NEURODEGENERATION” (NESTEC S.A., priority 2011, published 2014)

Tested on: primary cortical neurons
Assay: Primary cortical neuron aging model, neuronal survival by NeuN count
Format: cell-based, rat
Conditions: run in parallel with the chicory extract
Source text: A primary cortical culture system to study the effects of compounds on neuronal aging has been developed and applied to study the effects of chicory on neuronal survival. This cell culture system has been developed as a model of neuronal aging in order to mimic processes which occur during normal aging of neurons without a neurotoxic challenge. With this model beneficial effects against physiological neurodegeneration during aging can be studied and compounds which increase neuronal survival can be identified. This is a different approach from the models described in the prior art in which the cells are challenged with a neurotoxic insult in order to induce different degrees of neurodegeneration. Using immune-cytochemical analysis of the antigen, NeuN (Neuronal Nuclei), which is a sensitive marker of neurodegeneration, a reliable method for examining the lifespan of cortical neurons in culture has been established. The sensitivity of NeuN can be attributed to its steady reduction in expression intensity as neurons degenerate, which is in contrast to many antigens whose expression can distinguish only between living and dead neurons. Between four and six weeks after plating, the cortical neurons begin to degenerate, leading to a […] in NeuN count over this time (FIG. 1A). […] All tests were fixed at a time point between 6 and 8 weeks. […]

O=C(Nc1cccc([N+](=O)[O-])c1)c1cccc(S(=O)(=O)N2CCCCCC2)c1 [AK-1]
neuroprotective effect of the positive control relative to the chicory extract: smaller neuroprotective effect than the chicory extract | neuroprotective effect of the positive control versus non-treated cells: significantly positive over non-treated cells
